Assay results from patent publication US20190255144A1, “SPECIFIC OLIGOPEPTIDES AS ANTI-ANGIOGENIC DRUGS” (NEURONAX, priority 2014, published 2019).
Values joined by “and” are separate entries in the source; they are usually repeats but may differ in a detail not shown here. Identical values can stand only once. “Also recorded” adds a separate entry of the source.

Assays:
[1] = system: HBMEC cells; assay: ELISA Cell Death test for induction of the apoptosis on the HBMEC cells; type: cell-based, human; conditions: basal medium
Protocol: The apoptosis process is accompanied by the fragmentation of DNA and thus generates soluble nucleosomes (cytoplasmic histones associated with fragmented DNA), which can be metered by an immunoenzymatic method, ELISA Cell Death Plus (Enzyme-Linked ImmunoSorbent Assay) Kit (Roche Molecular Diagnostics, France) according to the recommendations of the supplier. The HBMEC cells were inoculated in a 24-well plate at the density of 5.10^3 cells/wells and allowed to stand for 24 hours. The cells are cultivated in a basal medium, i.e., in the absence of growth factors, which is changed before they are exposed to various treatments for 24 hours. They are then recovered and then centrifuged with 200 g for 5 minutes. The cells are then counted, and then adjusted to 3.10^4 cells/mL in PBS. A new centrifuging with 200 g is carried out for 10 minutes. The supernatant is removed, and the cell pellet is taken up in 200 μl of lysis buffer before incubation for 30 minutes at ambient temperature. After a new centrifuging for 10 minutes at 1,400 rpm, 20 μL of supernatant is distributed in wells coated with streptavidin and each condition is carried out in duplicate. 80 μL of the immunoreagent solution is added into each well. […] The reaction is then halted by adding 100 μL of ABTS stop solution, and the results are then analyzed using a 405-nm plaque reader. […]

[2] = system: tumors obtained from U87-MG grafts on the CAM; assay: Experimental tumors from U87-MG grafts on the CAM: vascularization, Ki-67, vimentin; type: in vivo, chicken embryo; conditions: for Tumor vascularization, density of the vessels that irrigate the tumor (in words): topical 250 μg/mL; for Quantification of the Ki-67 labeling, Center 1 / Quantification of the Ki-67 labeling, Center 2 / Quantification of the Ki-67 labeling, Edge 1 / Quantification of the Ki-67 labeling, Edge 2: treated 48 hours; for Quantification of the Ki-67 labeling, Center 1 / Quantification of the Ki-67 labeling, Center 2: tumor center; for Quantification of the Ki-67 labeling, Edge 1 / Quantification of the Ki-67 labeling, Edge 2: tumor edge
Protocol: To obtain a tumor, the U87-MG cells are inoculated at a rate of 200,000 cells in 75-cm^2 flasks in the presence of a basal medium. A volume that contains 4.10^6 cells is then sampled, and after centrifuging for 5 minutes with 311 g, the supernatant is eliminated, and the cells are resuspended in 20 μL of differential medium that is deposited in the center of a silicone ring that was previously applied on the CAM of an embryo at ED9. Once the grafting is done, the embryo is set out to incubate. At ED11, the tumors can be observed under a MZFL3 binocular (Leica, Paris, France). At this stage, the tumors are either treated topically (apical part of the tumor) by 30 μL of the oligopeptide according to the invention at 250 μg/mL or else by 30 μL of sterile distilled water up to stage ED13. The tumors are then sampled, and cryosections are produced to make possible immunohistochemical analyses. […] The macroscopic observations of tumors as well as the diffusion of fluorescein into the vessels are made with a fluorescence binocular (MZFL3, Leica, France).
A volume that contains 4.10^6 cells is then sampled and after centrifuging for 5 minutes with 300 g, the supernatant is eliminated, and the cells are resuspended in 20 μL of differential medium that is deposited in the center of a silicone ring that was previously applied on the CAM of an embryo at ED9. Once the grafting has been done, the embryo is set out to incubate.
At ED11, the tumors can be observed under a MZFL3 binocular (Leica, Paris, France), and it is possible to track the change in the tumor growth up to ED14.
The tumors that are developed on the CAM are observed on the chorioallantoic membrane using a MZFL3-type binocular (Leica, France) before being sampled.
The vascular endothelium of the vessels of a chicken is labeled using a lectin, SNA-1 (Sambuccus Nigra Agglutinin-1, Vector Laboratories), coupled to FITC (fluorescein isothiocyanate).
After 10 minutes of attachment with 200 μL of 4% PBS 1X-PFA at ambient temperature, the sections are incubated with a solution of 0.05% TBS 1X-Tween-0.1% Trypsin, pH 7.6, for 10 minutes. They are then washed 3 times in PBS 1X, and 100 μL of a dilution with 1/200th of the SNA-1 lectin in a solution of 0.05% TBS 1X-Tween with pH 7.6 is applied for 1 hour. After washing cycles (the last of which is carried out with distilled water), the slides are then mounted as described in the preceding paragraph and observed with a fluorescence microscope. Counts of vessels were made from photos with a magnification ×100 and in a marginal zone spreading 600 μm from the edge of the tumor. An ANOVA-type statistical test was then carried out to validate the relevance of the effect observed. The SNA-1 lectin specifically labels the chicken endothelial cells that constitute the vascular wall.
The tumors are attached in 4% PBS 1X-PFA (24 hours) and then dehydrated in absolute ethanol and then in pure toluene and next are enclosed and preserved in a paraffin block. 4-μm sections are made from a microtome and deposited on Superfrost plus slides, and then dried in an oven at 50° C. for one night.
To carry out the immunolabeling, the sections are dewaxed and then rehydrated by baths of decreasing concentrations of ethanol and then rinsed in PBS 1X.
So as to unmask the antigenic sites, the slides are incubated in a citrate buffer with pH 7 (200 μM of citric acid; 9.8 mmol of sodium citrate) and undergo a heating cycle (4×5 minutes at 750 W in the microwave). The endogenic peroxidases are inhibited by carrying out a 10-minute bath in methanol-5%H2O2. After 3 washing cycles, the saturation of PBS-3% BSA and then the incubation with the anti-Ki67 antibody are carried out. After rinsing with PBS 1X, an HRP-conjugated secondary antibody is applied for 1 hour at ambient temperature. […] A counter-staining is carried out in hematoxylin, and the sections are mounted in an aqueous solution before being observed with a Leica DMRX microscope.

[3] = system: genes in experimental tumors obtained from the CAM; assay: Quantitative analysis of the mRNA in experimental tumors obtained from CAM; type: in vivo, chicken; conditions: for Mean RQ ANGPT1 / Mean RQ ANGPT2 / Mean RQ CD36 / Mean RQ FGF2 / Mean RQ ITGB1 / Mean RQ KDR / Mean RQ PDGFB / Mean RQ PDGFRB / Mean RQ PLAU / Mean RQ TEK / Mean RQ TIE-1 / Mean RQ TIMP1 / Mean RQ TIMP4 / Mean RQ VEGFA: CAM tumors, relative expression, control = 1, triplicate; for Increase of expression of genes coding for the receptors (ITGB1, PDGFRβ, KDR, TIE-1, TIE-2, CD36) in relation to the control: experimental tumors obtained from the CAM
From the text: These receptors belong to the chicken species and are therefore found in the host vessels. […] Furthermore, the overexpression of ITGB1 at the same time as that of CD36 differentiates the peptide according to the invention (NX) from the TSP-1 (TSP).

[4] = U87-MG tumor on CAM, listed as TSP1

Row | Increase of expression of genes coding for the receptors (ITGB1, PDGFRβ, KDR, TIE-1, TIE-2, CD36) in relation to the control [3] | Substance | Protection of HBMEC from apoptosis (in words) [1] | Mean RQ ANGPT1 [3] | Mean RQ ANGPT2 [3] | Mean RQ CD36 [3] | Mean RQ FGF2 [3] | Mean RQ ITGB1 [3] | Mean RQ KDR [3] | Mean RQ PDGFB [3] | Mean RQ PDGFRB [3] | Mean RQ PLAU [3] | Mean RQ TEK [3] | Mean RQ TIE-1 [3] | Mean RQ TIMP1 [3] | Mean RQ TIMP4 [3] | Mean RQ VEGFA [3] | also measured
1 | on a lesser scale | thrombospondin 1 [TSP, reference compound] | this effect is not observed | 0.5106 | 0.2678 | 2.965 | 0.3429 | 1.317 | 1.557 | 0.6327 | 2.544 | 1.491 | 1.385 | 1.79 | 0.4492 | 0.6642 | 0.5392 | Tumor vascularization, density of the vessels that irrigate the tumor (in words) ([2]; U87-MG tumor on CAM): produces the same effects but to a lesser degree; Quantification of the Ki-67 labeling, Center 1 [2, 4]: 300 and 233; Quantification of the Ki-67 labeling, Center 2 [2, 4]: 292 and 350; Quantification of the Ki-67 labeling, Edge 1 [2, 4]: 227 and 286; Quantification of the Ki-67 labeling, Edge 2 [2, 4]: 314 and 228
2 | 4 factor | —W—S-G-W—S—S—C—S—R—S—C-G- (WSGWSSCSRSCG; Oligopeptide derived from SCO-Spondin) [NX] | protects the HBMEC human endothelial cells from the apoptosis at a level similar to the VEGF | 0.8241 | 0.6787 | 3.831 | 0.686 | 4.07 | 4.207 | 2.104 | 4.366 | 1.151 | 4.539 | 3.961 | 1.237 | 0.6552 | 1.298 | Time to disappearance of pinkish color (capillaries on the surface of the tumor) ([2]; CAM tumors 1 to 2 mm in diameter): ≤ 24 h; SNA-1 labeling of vessels on tumor sections ([2]; U87-MG tumor on CAM): the SNA-1 labeling disappears more specifically into the zone that is close to the surface of the tumor; Tumor vascularization, density of the vessels that irrigate the tumor (in words) ([2]; U87-MG tumor on CAM, listed as oligopeptide according to the invention): more effective than the TSP-1; also recorded: significant reduction in the density of the vessels that irrigate the tumor; Quantification of the Ki-67 labeling, Center 1 ([2]; U87-MG tumor on CAM): 355.5 and 369; Quantification of the Ki-67 labeling, Center 2 ([2]; U87-MG tumor on CAM): 383.5 and 370; Quantification of the Ki-67 labeling, Edge 1 ([2]; U87-MG tumor on CAM): 165 and 184; Quantification of the Ki-67 labeling, Edge 2 ([2]; U87-MG tumor on CAM): 172 and 153; Tumor cells expressing the vimentin ([2]; U87-MG tumor on CAM, vimentin/SNA-1 co-labeling): reduction in the number of differentiated tumor cells expressing the vimentin; Ki-67 labeling of tumor (in words) ([2]; tumors in the CAM model, peripheral zone): the peripheral zone does not express the Ki67 marker
